{"source": "patent US20150343016A1", "about": "“CHEMICAL ENTITIES AND THERAPEUTIC USES THEREOF” (The Regents of the University of Colorado, a body corporate, priority 2010, published 2015)", "key": {"[1]": {"test_system": "p53 mutant Drosophila larvae", "assay": "Drosophila larval survival to adulthood (eclosion), drug with and without IR, p53 mutants", "assay_type": "in vivo", "details": "drug alone (without radiation), wide range of doses", "description": "(§1) To validate the identification of Bouvardin from the primary screen, the effect of this molecule on Drosophila larvae alone or in combination with radiation were assessed (FIG. 12). The screen was performed using irradiated mutant larvae. Hits from the screen were defined as those that reduced the survival of IRRADIATED larvae compared to the population of drugs being tested (approximately 80 molecules at a time) or compared to DMSO controls in the re-test. A hit could therefore act by enhancing the effect of radiation, or by simply killing larvae as a single agent, or both. To distinguish among these possibilities, hits from the screen were re-tested against larvae with and without irradiation.\n(§2) In FIG. 12 survival after each treatment is expressed as the fraction of animals that emerged (“eclosed”) as viable adults. The averages have been normalized to the average fraction eclosed in no IR/drug control for the respective genotype. Error bars extend beyond fractional survival of 1.0 simply because of normalization. (A-C) Fraction eclosed for WT and grp and p53 mutants at 16 uM of Bouvardin, with and without IR. The data are averages of 3-8 biological replicates per sample. Dotted line on each graph denotes expected ‘fraction eclosed’ if drug and IR act additively. IR doses were 4000R for WT and grp and 3000R for p53 because of the higher radiation sensitivity of the latter. (D) Fraction eclosed for Minute mutants and yw controls after exposure to 0 (−IR) and 2000R (+IR) of X-rays. N ranged from 86-207 per genotype per treatment, in 3 biological replicates per sample. *=p<0.01; **=<0.001. 100R=1Gy. Error bar=1 standard deviation.\n(§3) The activity of Bouvardin in Drosophila alone or in combination with ionizing radiation (IR) was assessed. Drug concentrations of 10-20 μM were used to approximate the conditions of the original screen. Third instar larvae were irradiated and cultured on medium containing drug. The survival of larvae was quantified 10 days later by measuring the rate of eclosion into adulthood. […] For example, IR alone reduces the eclosion of p53 mutants to 0.63±0.05 and 10 μM of drug reduces it to 0.82±0.15. The combination of Bouvardin and IR reduces eclosion to 0.49, nearly the exact number expected (0.63±0.05×0.82±0.15=0.51±0.10) if the two treatments produced an additive effect. The expected eclosion for additive effect of drug and radiation are denoted with a white dotted line in each graph.\n(§4) Wild type flies were of the Sevelin stock. Mutants have been described before. p535A-1-4 results from targeted deletion of the gene, and is maintained and used as homogygotes. grpl (Chk1 mutants) results from a p-element insertion and is a genetic null. Homozygotes of the latter were identified by the lack of GFP marker on the balancer chromosome. Minute mutants were of the genotypes y[1]w[*]; P[w[+mC]=lacW]RpS131/CyO and P[lacW]RpL36G0471 w67c23/FM7a. Because Minute mutants were in yw or w background, y1w1 (Bloomington stock #1495) was used as ‘wild type’ control in these experiments.\n(§5) Feeding stage 3rd instar larvae were irradiated as previously described (2). Briefly, 120 hr old larvae were rinsed to remove food and passed through sizing sieves to obtain animals of uniform size. Larvae were placed in a Petri dish and irradiated using a TORREX X-ray generator, set at 115 kV and 5 mA (producing 2.4 Rads/sec or 1.44 Gy/min) Irradiated larvae were then cultured on cornmeal-agar media (2) containing drug or DMSO carrier. In all experiments using human cells, cells in 96-well plates were irradiated with a RS2000 Biological Irradiator (Rad Source Technologies, Inc.) delivering 1 Gy/min."}, "[2]": {"test_system": "H157 lung cancer cells", "assay": "CellTiter-Glo Luminescent Cell Viability Assay, Streptovitacin with ionizing radiation, H157", "assay_type": "cell-based, human", "details": "drug added 24 hr before irradiation", "description": "FIG. 15 depicts CI values for Streptovitacin A and radiation on H157 lung cancer cells.\nFor FIG. 15 CellTiter-Glo® Luminescent Cell Viability Assay (Promega G7570) were used to determine the effect of Streptovitacin (concentrations in uM) in combination with ionizing radiation (in Gy, X-axis). The drug was added 24 hr before irradiation. (A) Faction affected (Fa) determined by the following formula 1−(x/y) where x is the experimental sample and y is the no Bouvardin/no drug control) (B) Corresponding CI values. Cells were irradiated in a Faxitron X-ray cabinet x-ray system (Lincolnshire, Ill.) set at 115 kV and 5 mA (producing 5.33 Rads/sec or 3.2 Gy/min) Note that this X-ray machine, produces a higher dose rate (lower exposure time) than the X-ray machine used on H157 cells in FIG. 18. Even with the same settings, higher IR doses are needed to achieve the same Fa. More important, combinatorial effects with drugs are similar if not identical on the two machines."}, "[3]": {"test_system": "wild type Drosophila larvae", "assay": "Drosophila larval survival to adulthood (eclosion), drug with and without IR, wild type", "assay_type": "in vivo", "details": "wild type Drosophila larvae", "description": "as §1, §2, §3, §4\nas §5, with “In all experiments using human cells, cells in 96-well plates were irradiated with a RS2000 Biological Irradiator (Rad Source Technologies, Inc.) delivering 1 Gy/min.” left out"}, "[4]": {"test_system": "Det562 Head and Neck Squamous Cell Carcinoma cells", "assay": "Streptovitacin A alone and in combination with taxol on human cancer cells", "assay_type": "cell-based", "details": "at a wide range of doses", "description": "FIG. 11 depicts that streptovitacin A synergizes with taxol on Det562 Head and Neck Cancer cells. Concentrations for streptovitacin/taxol are shown. CI=1 indicates additive effects; CI>1 indicates antagonistic effects; CI<1 indicates synergy. The y-axis is “Combination Index” (CI).\nThe effect of streptovitacin A on human cancer cells alone and in combination with taxol was tested.\nFIG. 11 depicts that at a wide range of doses the two drugs are synergistic (CI<1) in Det562 Head and Neck Squamous Cell Carcinoma cells."}, "[5]": {"test_system": "Drosophila Chk1 or p53 mutant larvae", "assay": "Drosophila screen for agents that increase the sensitivity of mutant larvae to radiation (NCI Diversity Set I and Natural Products Set)", "assay_type": "in vivo", "details": "irradiated Drosophila Chk1 or p53 mutant larvae", "text": "The Diversity Set I from the NCI-DTP, which is comprised of 1990 molecules chosen for chemical structural diversity and not for biological activity was screened using the Drosophila screen (U.S. Pat. No. 7,695,899).\nTable 1. […] A total of 2225 molecules in Diversity Set I (n=1990) and Natural Products Set (n=235) libraries from the NCI-DTP were screened for agents that increased the sensitivity of Drosophila Chk1 or p53 mutant larvae to radiation. […] MT=microtubule; DS=double strand; topo=topoisomerase; NT=nucleotide\nThe Natural Product Set, also from the NCI-DTP, which contains 235 small molecules derived from natural sources was selected next. These molecules were identified initially in extracts from plants, microbes and marine organisms, but are now synthesized to sufficient purity for distribution by the NCI as plated sets.\nas §1, with “The” for “To validate the identification of Bouvardin from the primary screen, the effect of this molecule on Drosophila larvae alone or in combination with radiation were assessed (FIG. 12). The”"}, "[6]": {"test_system": "xenografts of Rhabdomyosarcoma", "details": "cited from earlier work"}, "[7]": {"test_system": "cells from human squamous cell carcinoma, melanoma, non-small cell lung carcinoma, malignant gliomas and small cell lung cancer", "details": "Topotecan and its analogs; preclinical models; cited from earlier work"}, "[8]": {"test_system": "Det562 cells", "assay": "CellTiter-Glo Luminescent Cell Viability Assay, Bouvardin with Taxol, Det562", "assay_type": "cell-based, human", "details": "Det562 versus FaDu", "method": "“Combination Index” computation. Combination Indices were calculated using CalcuSyn software (Biosoft), which uses the method of Chou and Talalay. This method first computes drug-induced effect using the Hill Equation: where E is the measured effect; C is the drug concentration; Emax is the full range of drug effect, usually at or near 100%; IC50 is the drug concentration producing the median effect of 50%; and n is the curve shape parameter describing the steepness of the concentration-effect relationship. The Chou and Talalay method then linearizes the Hill Equation by logarithmic transformation as: where fu is the fraction of cells left unaffected after drug exposure, fa is the fraction of cells affected by the exposure, C is the drug concentration used, Cm is the concentration to achieve the median effect, and n is the curve shape parameter. Cm and n are equivalent to IC50 and n, respectively, in the Hill Equation. The values of n (obtained from the slope), nlog(Cm) (obtained from the absolute value of the intercept), and, therefore, Cm are obtained by plotting log(fu−1−1) versus log(C). […]\nThe growth inhibitory effects of Bouvardin with Taxol were evaluated using CellTiter-Glo® Luminescent Cell Viability Assay (Promega G7570). […] Luminescence of each well was measured using an automated plate reader."}}}
{"compound": "C[C@H]1C[C@@](C)(O)C[C@@H]([C@H](O)CC2CC(=O)NC(=O)C2)C1=O", "note": "[Streptovitacin A, streptovitacin A]", "values": [{"measurement": "fraction of p53 mutant larvae that survive to adulthood versus wild type larvae", "setting": "[1]", "value": "lower than the fraction of wild type larvae that survive to adulthood"}, {"measurement": "fraction of p53 mutant larvae that survive to adulthood versus wild type larvae", "setting": "[1]; listed as streptovitacin A", "value": "kills p53 mutant larvae selectively over wild type larvae"}, {"measurement": "interaction of drug with radiation", "setting": "[2]", "value": "synergize at most combinations tested"}, {"measurement": "manner in which drug and ionizing radiation act together to kill larvae", "setting": "[3]", "value": "act synergistically"}, {"measurement": "observed average for the combination versus expected additive value", "setting": "[3]; 10 μM drug + IR", "value": "significantly lower than the expected additive value"}, {"measurement": "Combination Index (CI), streptovitacin A with taxol", "setting": "[4]", "value": "< 1"}]}
{"compound": "C[C@H]1CC[C@@H](C(C)(C)O)CC2=C1CC[C@@H]2C", "note": "[Guaiol]", "values": [{"measurement": "Reproducible hit that increased the sensitivity of larvae to radiation; screen in which identified", "setting": "[5]", "value": "Guaiol (2)"}]}
{"compound": "CC[C@@]1(O)C(=O)OCc2c1cc1n(c2=O)Cc2cc3ccccc3nc2-1", "note": "[20-S Camptothecin]", "values": [{"measurement": "Reproducible hit that increased the sensitivity of larvae to radiation; screen in which identified", "setting": "[5]", "value": "Camptothecin (1)"}]}
{"compound": "CC[C@@]1(O)C(=O)OCc2c1cc1n(c2=O)Cc2cc3c(CN(C)C)c(O)ccc3nc2-1", "note": "[Topotecan]", "values": [{"measurement": "interaction with radiation", "setting": "[6]", "value": "Synergy between Topotecan and radiation has been confirmed"}, {"measurement": "interaction with radiation", "setting": "[7]", "value": "synergize with radiation"}]}
{"compound": "Bleomycin", "values": [{"measurement": "Reproducible hit that increased the sensitivity of larvae to radiation; screen in which identified", "setting": "[5]", "value": "Bleomycin (2)"}]}
{"compound": "CC[C@H](C)[C@H]1NC(=O)[C@@H](NC(=O)[C@@H](CC(C)C)N(C)C(=O)[C@@H]2CCCN2C(=O)C(C)O)[C@@H](C)OC(=O)[C@H](Cc2ccc(OC)cc2)N(C)C(=O)[C@@H]2CCCN2C(=O)[C@H](CC(C)C)NC(=O)[C@@H](C)C(=O)[C@H](C(C)C)OC(=O)C[C@@H]1O", "note": "(stereo partly shown) [Didemnin B]", "values": [{"measurement": "Reproducible hit that increased the sensitivity of larvae to radiation; screen in which identified", "setting": "[5]", "value": "Didemnin B (2)"}]}
{"compound": "CC(=O)O[C@H]1C(=O)[C@@]2(C)[C@H]([C@H](OC(=O)c3ccccc3)[C@]3(O)C[C@H](OC(=O)[C@H](O)[C@@H](NC(=O)c4ccccc4)c4ccccc4)C(C)=C1C3(C)C)[C@]1(OC(C)=O)CO[C@@H]1C[C@@H]2O", "note": "[Taxol, paclitaxel, reference compound]", "values": [{"measurement": "sensitivity of cells to Taxol alone", "setting": "[8]", "value": "more sensitive to Taxol alone than FaDu cells"}]}
